# Measured values: patent publication US11377436B2, “EAAT2 enhancing molecules” (THE BRIGHAM AND WOMEN'S HOSPITAL, INC., priority 2017, dated 2022)
# Legend:
# human EAAT2 = test: In vitro assay in primary astrocyte cultures (PA-EAAT2 cells), EAAT2 protein levels by Western blot; type: cell-based; settings: for In vitro - fold increase for EAAT2 in cultured astrocytes at indicated concentration (maximum activity): PA-EAAT2 cells treated 24 hr at 0.25-25 μM, relative to DMSO controls, value at the concentration that reaches maximum activity; for indicated concentration that reaches maximum activity (EAAT2 increase in cultured astrocytes): PA-EAAT2 cells, 24 hr, tested at 0.25, 0.5, 1, 2.5, 5, 10 and 25 μM
# Description: In vitro assay in primary astrocyte cultures. Example compounds were initially evaluated in PA-EAAT2 cells, a primary astrocyte stably expressing human EAAT2 mRNAs (Kong et al., J Clin Invest. 124:1255-67). Cells were treated with the example compounds at 0.25 μM, 0.5 μM, 1 μM, 2.5 μM, 5 μM, 10 μM, and 25 μM for 24 hr and then harvested for measuring EAAT2 protein levels by Western blot analysis.
# EAAT2 = test: In vivo assay in wild-type mice, EAAT2 protein levels in forebrain gliosomes by Western blot; settings: C57BL/6J mice, 40 mg/kg oral gavage, relative to vehicle controls
# Description: In vivo assay in wild-type mice. Example compounds that were capable of increasing EAAT2 protein expression in cultured astrocytes were further evaluated in C57BL/6J mice. Mice were treated by oral gavage with the compound at 40 mg/kg. At 24 hr post-treatment, mice were euthanized and forebrains were harvested for the gliosome preparation (Dunkley et al., Nat Protoc 3, 1718-1728). Gliosomes are enriched with astrocytic processes, and majority of EAAT2 is localized in astrocytic processes (gliosomes). EAAT2 protein levels in gliosomes were determined by Western blot analysis.
Compound,In vitro - fold increase for EAAT2 in cultured astrocytes at indicated concentration (maximum activity) (human EAAT2),indicated concentration that reaches maximum activity (EAAT2 increase in cultured astrocytes) (human EAAT2),In vivo - fold increase for EAAT2 in mouse forebrain at 24 hr post treatment (40 mg/kg by PO) (EAAT2)
"O=C(Nc1ccc(-c2ccccn2)cn1)c1ccccc1 [Example 3, N-([2,3′-bipyridin]-6′-yl)benzamide]",1.68 fold,(5 μM),1.42 fold
"O=C(Nc1ccc(-c2ccccn2)nc1)c1ccccc1 [Example 18, N-([2,2′-bipyridin]-5-yl)benzamide]",2.45 fold,(1 μM),1.56 fold
"O=C(Nc1ccc(-c2ccccn2)nc1)c1ccc(F)cc1 [Example 19, N-([2,2′-bipyridin]-5-yl)-4-fluorobenzamide]",1.97 fold,(1 μM),1.41 fold
"COc1ccc(C(=O)Nc2ccc(-c3ccccn3)nc2)cc1 [Example 21, N-([2,2′-bipyridin]-5-yl)-4-methoxybenzamide]",1.73 fold,(0.5 μM),1.34 fold
"O=C(Nc1ccc(-c2ccccn2)nc1)c1ccc(Cl)cc1 [Example 22, N-([2,2′-bipyridin]-5-yl)-4-chlorobenzamide]",1.64 fold,(0.5 μM),1.20 fold
"O=C(Nc1ccc(-c2ccccn2)nc1)c1cccc(Cl)c1 [Example 23, N-([2,2′-bipyridin]-5-yl)-3-chlorobenzamide]",1.84 fold,(2.5 μM),1.45 fold
"O=C(Nc1cnc(-c2ccccn2)cn1)c1ccccc1 [Example 33, N-(5-(pyridin-2-yl)pyrazin-2-yl)benzamide]",no increase,,no increase
"O=C(Nc1ncc(-c2ccccn2)cn1)c1ccccc1 [Example 48, N-(5-(pyridin-2-yl)pyrimidin-2-yl)benzamide]",1.58 fold,(2.5 μM),1.45 fold
"O=C(Nc1cnc(-c2ccccn2)nc1)c1ccccc1 [Example 63, N-(2-(pyridin-2-yl)pyrimidin-5-yl)benzamide]",1.32 fold,(5 μM),no increase
"CN(C)CCOc1ccc(-c2ccccn2)cn1 [Example 94, 2-([2,3′-bipyridin]-6′-yloxy)-N,N-dimethylethan-1-amine]",1.51 fold,(5 μM),1.49 fold
"CN(C)CCOc1cnc(-c2ccccn2)cn1 [Example 136, N,N-dimethyl-2-((5-(pyridin-2-yl)pyrazin-2-yl)oxy)ethan-1-amine]",no increase,,no increase
"CN(C)CCOc1ncc(-c2ccccn2)cn1 [Example 157, N,N-dimethyl-2-((5-(pyridin-2-yl)pyrimidin-2-yl)oxy)ethan-1-amine]",1.54 fold,(1 μM),1.37 fold
